Source: patent US9938292B2 (GUANGDONG ZHONGSHENG PHARMACEUTICAL CO., LTD, priority 2014, dated 2018)
pIC50: −log10 of the molar value.

The compounds below were run on Hedgehog signaling pathway (assay: Gli-Luc luciferase reporter gene assay in C3H10T1/2/Gli-Luc cells under Shh-N stimulation). Details: Mus musculus, C3H 10T1/2, 24 h, luciferase RLU, read-out: biological activity: IC50 of the inhibitory activities of compounds on the hedgehog pathway.
Assay type: cell-based
In short: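 C3H10T1/2 cells stably carrying a Gli-responsive luciferase reporter were stimulated with 30 nM Shh-N conditioned medium plus compound (7-point dilutions, duplicate) for 24 h at 37 °C. Luciferase luminescence read from lysates; IC50 by sigmoidal fit of RLU versus log concentration.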

| pIC50 | Compound |
| --- | --- |
| 6.30 to 7.00 | CC(C)(O)c1ccc(N2CC3(C2)CN(c2cnc4c(-c5ccc(C#N)cc5)cccc4c2C2CC2)C3)nc1 [Embodiment 255, 4-(4-cyclopropyl-3-(6-(5-(2-hydroxypropan-2-yl)pyridin-2-yl)-2,6-diazaspiro[3.3]heptan-2-yl)quinolin-8-yl)benzonitrile] |
| 6.30 to 7.00 | CC(C)(O)c1ccc(N2CCC3(CC2)CCN(c2cnc4c(-c5ccc(C#N)cc5)cccc4c2C2CC2)CC3)nc1 [Embodiment 256, 4-(4-cyclopropyl-3-(9-(5-(2-hydroxypropan-2-yl)pyridin-2-yl)-3,9-diazaspiro[5.5]undecan-3-yl)quinolin-8-yl)benzonitrile] |
| ≥ 7.30 | Cc1nc(N2C[C@@H](C)O[C@@H](C)C2)ccc1-c1cnc2c(-c3ccc(C#N)cc3)cccc2c1C1CC1 [Embodiment 257, 4-(4-cyclopropyl-3-(6-((2S,6R)-2,6-dimethylmorpholino)-2-methylpyridin-3-yl)quinolin-8-yl)benzonitrile] |
| 6.30 to 7.00 | CC(C)c1c(-c2ccc(N3C[C@@H](C)O[C@@H](C)C3)nc2)cnc2c(-c3ccc(C#N)cc3)cccc12 [Embodiment 258, 4-(3-(6-((2S,6R)-2,6-dimethylmorpholino)pyridin-3-yl)-4-isopropylquinolin-8-yl) benzonitrile] |
| 7.00 to 7.30 | C[C@@H]1CN(c2ccc(-c3cnc4c(-c5ccc(C#N)cc5)cccc4c3C3CCC3)cn2)C[C@H](C)O1 [Embodiment 259, 4-(4-cyclobutyl-3-(6-((2S,6R)-2,6-dimethylmorpholino)pyridin-3-yl)quinolin-8-yl) benzonitrile] |
| 6.30 to 7.00 | C[C@@H]1CN(c2ccc(-c3cnc4c(-c5ccc(C#N)cc5)cccc4c3C3=CCCC3)cn2)C[C@H](C)O1 [Embodiment 260] |
| 6.30 to 7.00 | CC(C)c1ccc(N2CCN(c3cnc4c(-c5ccc(C#N)cc5)cccc4c3C3CC3)CC2)nc1 [Embodiment 261, 4-(4-((4-cyclopropyl-35-isopropylpyridin-2-yl)-3-)-quinolin-8-yl)benzonitrile] |
| ≥ 7.30 | CC(C)(O)c1ccc(C2(O)CCN(c3cnc4c(-c5ccc(C#N)cc5)cccc4c3C3CC3)CC2)nc1 [Embodiment 262] |
| ≥ 7.30 | C[C@@H]1CN(c2ccc(-c3cnc4c(-c5ccccn5)cccc4c3C3CC3)cc2)C[C@H](C)O1 [Embodiment 263, (2S,6R)-4-(5-(4-8-cyclopropyl-(2-pyridinyl)quinolin-3-yl)pyridin-2-yl)-2,6-dimethylmorpholine] |
| 7.00 to 7.30 | C[C@@H]1CN(c2ccc(-c3cnc4c(-c5ccc(OC(F)(F)F)cc5)cccc4c3C3CC3)cn2)C[C@H](C)O1 [Embodiment 265, (2S,6R)-4-(5-(4-cyclopropyl-8-(4-(trifluoromethoxy)phenyl)quinolin-3-yl)pyridin-2-yl)-2,6-dimethylmorpholine] |
| ≥ 7.30 | C[C@H]1CN(c2ccc(-c3cnc4c(-c5ccc(C#N)cc5)cccc4c3C3CC3)cn2)C[C@H](C)O1 [Embodiment 266, 4-(4-cyclopropyl-3-(6-((2S,6S)-2,6-dimethylmorpholino)pyridin-3-yl)quinolin-8-yl) benzonitrile] |
| ≥ 7.30 | CS(=O)(=O)CCC(=O)N1CCN(c2cnc3c(-c4ccc(C#N)cc4)cccc3c2C2CC2)CC1 [Embodiment 267, 4-(4-cyclopropyl-3-(4-(3-(methylsulfonyl)-3-propanoyl))quinolin-8-yl) benzonitrile] |
| 6.30 to 7.00 | COc1c(N2CCC(N3CCCC3)CC2)cnc2c(-c3ccc(C#N)cc3)cccc12 [Embodiment 268, 4-(4-methoxy-3-(4-(pyrrolidin-1-yl)piperidin-1-yl)quinolin-8-yl)benzonitrile] |
| ≥ 7.30 | C[C@@H]1CN([C@@H]2CCN(c3cnc4c(-c5ccc(C#N)cc5)cccc4c3C3CC3)C[C@@H]2F)C[C@H](C)O1 [Embodiment 269, 4-(4-cyclopropyl-3-((3S,4R)-4-((2S,6R)-2,6-dimethylmorpholino)-3-fluoropiperidin-1-yl)quinolin-8-yl)benzonitrile] |
| 7.00 to 7.30 | COc1c(N2CCN(c3ccc(C(C)C)cn3)CC2)cnc2c(-c3ccc(C#N)cc3)cccc12 [Embodiment 270, 4-(3-(4-(5-isopropylpyridin-2-yl)-3-)-4-methoxyquinolin-8-yl) benzonitrile] |
| 6.30 to 7.00 | N#Cc1ccc(-c2cccc3c(C4CC4)c(N4CCN(c5cc[nH]c(=O)c5)CC4)cnc23)cc1 [Embodiment 271, 4-(4-cyclopropyl-3-(4-(2-oxo-1,2-dihydropyridin-4-yl)piperazin-1-yl)quinolin-8-yl) benzonitrile] |
